How the values were obtained:
[1] = system: secondary alcohol dehydrogenase (SADH), cell-free soluble extract; test: oxidation of sec-alcohols by cell-free soluble extracts; format: biochemical, Pseudomonas sp. CRL 75 (ATCC 21,439); settings: for Oxidation Rate, sec-alcohol to corresponding ketone: soluble crude extract, grown on methanol
Protocol: To prepare the cell-free secondary alcohol dehydrogenase (SADH) system, the washed cells were disrupted with a Wave Energy Ultrasonic Oscillator, Model W201 (Wave Energy System, Inc., Newtown, Pa.) and centrifuged at 20,000×g. for 30 minutes. […] The enzyme activity was measured with a fluorescence spectrophotometer (Perkin Elmer, Model MPF 44A) by following the formation of reduced NAD (EX 340 nm, Em 460 nm). The formation of reduced NAD was also followed with an absorption spectrophotometer at 340 nm. The assay system (3 ml.) contained: potassium phosphate buffer pH 7.0; 150 μmol.; NAD 1 μmol.; a given amount of enzyme preparation; and secondary alcohol 10 μmol. The reaction was started by the addition of substrate. One unit of enzyme activity represents the reduction of one μmole NAD per minute. Protein concentrations were determined by the Lowry method (J. Biol. Chem., 193: 255-275 (1951)).
The experimental procedure for the tests reported in Table VIII were as follows: 1 mg protein of crude extract was added into a 0.5 ml. 0.05 M phosphate buffer (pH 7.0) in a 10-ml. vial. […] The reaction mixture was incubated at 30° C. on a water bath. A 3 μl sample was removed with a syringe at 15 min. of incubation and was assayed with g.l.c. Catalytic activity was also assayed by fluorescence spectrophotometry.

[2] = system: Candida utilis ATCC 26387; test: sec-alcohols to ketones by cell suspensions of yeasts; format: cell-based
[3] = system: Methylobacterium organophilum XX (ATCC 27886); test: sec-alcohols to ketones by resting cell suspensions; format: cell-based
Protocol: (§1) The pH of the nutrient medium was adjusted to 7.0 by the addition of acid or base and 50 ml. samples of the nutrient medium were charged into a plurality of 300 ml. shaker flasks. The shaker flasks were inoculated with an inoculating loop of cells from an agar plate containing homogeneous colonies of the microorganisms on the plate (the purity of the isolates was confirmed by microscopic examination). The isolates had been maintained on methanol (0.4% V/V) agar plates or on agar plates under an atmosphere of methane and air having a 1:1 V/V gas ratio which had been transferred every two weeks. For growth on methanol, the medium was supplemented with 0.4% methanol. For growth on methane, the gaseous phase of the inoculated flasks was replaced with a gas mixture comprised of methane and air having a ratio of 1:1 on a V/V basis. The inoculated flasks were sealed air-tight and were incubated on a rotary shaker of orbital radius 2.5 cm. at 250 rpm and at 30° C. for two days until turbidity in the medium had developed. The cells were harvested by centrifugation at 10,000×g. at 4° C. for 30 minutes. The cell pellet was washed twice with a 0.05 M phosphate buffer at a pH of 7.0 (containing 0.02 M MgCl2). The washed cells were then suspended in a 0.05 M phosphate buffer at pH 7.0.
(§2) A 0.5 ml. sample of each washed cell suspension (2 mg. cells) was put into 10 ml. vials at 4° C. which were sealed with a rubber cap. The gaseous phase of the vials was removed with vacuum and then was replaced with a gas mixture of the substrate reactant (i.e., alkane or secondary alcohol) and oxygen at a 1:1 V/V ratio. (In the case of a liquid substrate, i.e., secondary alcohol, 10 μl of the substrate was put in the 10 ml. vials). […] Samples of product (1-3 μl) were withdrawn periodically with a microsyringe and the products were analyzed by gas chromatography (ionization flame detector column).
(§3) The procedure in Example 1 was repeated wherein a plurality of the methane-utilizing methylotrophic microorganisms were each grown aerobically in a nutrient medium containing methane as the alcohol dehydrogenase enzyme inducer and as the major carbon and energy source for growth. The cells were harvested and washed as described in Example 1. The resting microbial cells of the induced methane-grown methane-utilizing methylotrophic microorganisms were then contacted with C3 -C6 secondary alcohols in a buffered solution by the procedure of Example 1.
(§4) In this example, the procedure in Example 1 was repeated except that a plurality of methane-utilizing methylotrophic microorganisms were each aerobically grown in a methanol-containing nutrient medium instead of a methane-containing medium. The nutrients in the medium were the same as indicated in Example 1 except that 0.4% V/V methanol was used as the alcohol dehydrogenase inducer and major source of carbon and energy for growth. Following growth, the cells were harvested and washed as described in Example 1.
(§5) The resting cells of the induced methanol-grown methylotrophic microorganisms were then contacted with secondary alcohols in a buffered solution by the procedure described in Example 1.
(§6) The procedure in Example 1 was repeated except that the methylotrophic microorganisms were each aerobically grown in an alcohol dehydrogenase-inducing growth medium containing methylamine or methyl formate as the alcohol dehydrogenase enzyme inducer and growth substrate instead of methane. The nutrients in the medium were the same as indicated in Example 1 except that 0.4% V/V of the alcohol dehydrogenase-inducer growth substrate was used as the major carbon and energy source. The cells were harvested and washed as described in Example 1. The resting microbial cells were then contacted with C3 -C6 secondary alcohols in a buffered solution by the conversion procedure of Example 1.

[4] = system: Methylosinus trichosporium OB3b (NRRL B-11,196); test: as above; format: cell-based
Protocol: as §1, §2, §3, §4, §5, §6

[5] = system: Methanomonas methylovora ATCC 21852 (Obligate); test: as above; format: cell-based
Protocol: as §1, §2
(§7) The procedure in Example 1 was repeated except that a plurality of methanol-utilizing methylotrophic microorganisms were each aerobically grown in a methanol-containing nutrient medium instead of a methane-containing medium. The nutrients in the medium were the same as indicated in Example 1 except that 0.4% V/V methanol was used as the alcohol dehydrogenase inducer and as the major carbon and energy source for growth. The cells were harvested and washed as described in Example 1. The resting microbial cells of the induced methanol-grown methanol-utilizing methylotrophic microorganisms were then contacted with C3 -C6 secondary alcohols in a buffered solution by the procedure of Example 1.
as §6

[6] = system: Pseudomonas sp. ATCC 21438 (Facultative); test: as above; format: cell-based
Protocol: as §1, §2, §7, §6

Row | Compound | Conversion Rate, 2-butanol to 2-butanone ([1]; Growth Substrate CH3 OH) [nmoles/min/mg protein] | Oxidation Rate, sec-alcohol to corresponding ketone [1] [nmole/min/mg protein] | Conversion Rate, sec-alcohol to corresponding ketone ([2]; Growth Substrate Ethanol) | Conversion Rate, sec-alcohol to corresponding ketone ([2]; Growth Substrate Methanol) | Conversion Rate, sec-alcohol to corresponding ketone ([2]; Growth Substrate Methylamine) | Conversion Rate, sec-alcohol to corresponding ketone ([2]; Growth Substrate Methylformate) | Conversion Rate, sec-alcohol to corresponding ketone ([2]; Growth Substrate Propylamine) | Conversion Rates, sec-alcohol to corresponding ketone ([3]; cells grown on methane) [μmoles/hr/mg protein] | Conversion Rates, sec-alcohol to corresponding ketone ([3]; cells grown on methanol) [μn moles/hr/mg protein] | Conversion Rates, sec-alcohol to corresponding ketone ([3]; methyl formate-grown cells) [μmoles/hr/mg protein] | Conversion Rates, sec-alcohol to corresponding ketone ([4]; cells grown on methane) [μmoles/hr/mg protein] | Conversion Rates, sec-alcohol to corresponding ketone ([4]; cells grown on methanol) [μn moles/hr/mg protein] | Conversion Rates, sec-alcohol to corresponding ketone ([4]; methyl formate-grown cells) [μmoles/hr/mg protein] | Conversion Rates, sec-alcohol to corresponding ketone ([5]; methanol-grown cells) [μmoles/hr/mg protein] | Conversion Rates, sec-alcohol to corresponding ketone ([5]; methyl formate-grown cells) [μmoles/hr/mg protein] | Conversion Rates, sec-alcohol to corresponding ketone ([5]; methylamine-grown cells) [μmoles/hr/mg protein] | Conversion Rates, sec-alcohol to corresponding ketone ([6]; methanol-grown cells) [μmoles/hr/mg protein] | Conversion Rates, sec-alcohol to corresponding ketone ([6]; methyl formate-grown cells) [μmoles/hr/mg protein] | Conversion Rates, sec-alcohol to corresponding ketone ([6]; methylamine-grown cells) [μmoles/hr/mg protein]
1 | CCC(C)O (stereo not shown) [2-Butanol, 2-butanol] | 25.0 | 25.0 | 5.2 μmoles/hr/mg of protein | 6.8 μmoles/hr/mg of protein | 5.0 μmoles/hr/mg of protein | 6.2 μmoles/hr/mg of protein | 4.2 μmoles/hr/mg of protein | 2.5 | 2.8 | 3.5 | 3.7 | 4.1 | 4.5 | 2.5 | 2.1 | 3.2 | 3.2 | 3.2 | 2.1
2 | CCCCC(C)O (stereo not shown) [2-Hexanol, 2-hexanol] |  | 0 | 0.72 μmoles/hr/mg of protein | 0.8 μmoles/hr/mg of protein | 0.61 μmoles/hr/mg of protein | 0.75 μmoles/hr/mg of protein | 0.52 μmoles/hr/mg of protein | 0.12 | 1.1 | 0.70 | 0.07 | 0.9 | 0.72 | 1.0 | 0.60 | 0.09 | 0.7 | 0.80 | 0.07
3 | CCCC(C)O (stereo not shown) [2-Pentanol, 2-pentanol] |  | 1.2 | 1.0 μmoles/hr/mg of protein | 1.5 μmoles/hr/mg of protein | 1.2 μmoles/hr/mg of protein | 1.3 μmoles/hr/mg of protein | 0.9 μmoles/hr/mg of protein | 0.82 | 0.9 | 1.0 | 2.7 | 2.9 | 1.5 | 2.1 | 1.5 | 1.0 | 2.7 | 2.0 | 0.82
4 | CC(C)O [2-Propanol, 2-propanol] |  | 21.2 | 5.2 μmoles/hr/mg of protein | 6.2 μmoles/hr/mg of protein | 5.0 μmoles/hr/mg of protein | 5.6 μmoles/hr/mg of protein | 4.2 μmoles/hr/mg of protein | 0.5 | 0.70 | 0.48 | 0.25 | 0.30 | 0.95 | 0.28 | 0.62 | 0.82 | 0.45 | 0.52 | 1.0

— US4250259A, “Microbiological production of ketones from C3 -C6 secondary alcohols” (priority 1979, dated 1981)
